Experimental data taken from patent US9132138B2, “Method for the treatment of multiple sclerosis” (CASI Pharmaceuticals, Inc., priority 2012, dated 2015).

What was measured:
[1] = tested on: human PBL; assay: Proliferation of human PBMC/PBL activated with anti-CD3/28 (3H-thymidine); type: cell-based; settings: anti-CD3/28 antibodies, 24 or 48 hours
Protocol: FIGS. 2A-2E, show proliferation and activation of T cells are inhibited by 2ME2. FIG. 2A, CD4^+ T cells were pre-treated with the indicated concentrations of 2ME2 and stimulated with plate-bound anti-CD3/28 or PMA/iono. Proliferation was assayed 24 hours (left) or 48 hours (right) later by 3H-thymidine incorporation. FIG. 2B, CD4^+ and CD8^+ T cells were stimulated with anti-CD3/28 in the presence of increasing concentrations of 2ME2. CD25 expression was assessed at 6 hours or 24 hours post-stimulation by flow cytometry. FIG. 2C, Quantification of CD25 expression in purified CD4^+ T cells pre-treated with increasing concentrations of 2ME2, and stimulated with anti CD3/28 or PMA/iono for 6 or 24 hours. […] Viability was determined 24 hours or 48 hours post-stimulation by flow cytometry. […] Proliferation was determined 24 hours or 48 hours later by 3H-thymidine incorporation. […]
Purified CD4^+ T cells were stimulated with plate-bound anti-CD3 (clone 2C11, BD, 10 ng/ml) plus anti-CD28 (clone 37.51, BD, 100 ng/ml). […] CD25 and CD69 expression was determined by flow cytometry (FACSCanto II, BD) and analyzed using FloJo software (Treestar Inc). Proliferation was assessed by 3H-thymidine incorporation. Viability and upregulation of cell surface markers on activated T cells were assessed by flow cytometry using Annexin V and propridium iodide. […]

[2] = tested on: AP-1; assay: EMSA of T cell nuclear extracts; type: cell-based, C57/BL6 mice; settings: 2ME2 50 μM, PMA/iono
Protocol: (§1) FIG. 4A, purified T cells pre-treated with 2ME2 (50 μM) were stimulated with PMA/iono for the indicated times. Whole cell lysates were subjected to immunoblotting to detect the indicated proteins. FIG. 4B, nuclear lysates were analyzed by EMSA to detect DNA binding to NF-κB or AP-1. FP, free probe. FIG. 4C, purified T cells or B cells were pre-treated with vehicle (−) or 50 μM 2ME2 (+) and were stimulated with PMA/iono for 30 or 60 minutes (left), or with anti-CD3/28 or anti-IgM/CD40 for 24 hours (right). Nuclear fractions of lymphocytes were analyzed by immunoblotting to detect nuclear translocation of NFATc1. Lamin A, nuclear protein loading control. NS; non-specific band. For FIGS. 4A-4C, data are representative of at least two independent experiments. FIG. 4D, stably transfected NFAT and NF-κB Jurkat luciferase reporter cell lines were preincubated with 2ME2 for 30 minutes, and stimulated via crosslinking of anti-CD3/28 antibodies with goat anti-mouse antibodies (GaM). 5 hours later, secreted luciferase activity indicates relative transcriptional activity. Data is reported as normalized luciferase activity and is representative of 3 independent experiments.
(§2) Nuclear extracts of T cells stimulated with PMA (10 ng/ml)+calcium ionophore A23187 (iono, Sigma) (50 ng/ml) for 30 or 60 minutes were prepared according to a standard protocol. […]

[3] = tested on: NF-κB; assay: EMSA of T cell nuclear extracts; type: cell-based, C57/BL6 mice; settings: 2ME2 50 μM, PMA/iono
Protocol: as §1, §2

[4] = molecular target: T1, GPER1 (Mus musculus, UniProt Q8BMP4); assay: GPER1 dependence: CD25/CD69 on CD4+ T cells with G15 or G1; type: cell-based, C57/BL6 mice; settings: at 6 hours
T1 construct: Purified C57/BL6 CD4^+ T cells were preincubated with the GPER1 antagonist G15; endogenous in cells; host or cells: purified primary CD4+ T cells from C57/BL6 mice
T1 sequence (Q8BMP4 1-375): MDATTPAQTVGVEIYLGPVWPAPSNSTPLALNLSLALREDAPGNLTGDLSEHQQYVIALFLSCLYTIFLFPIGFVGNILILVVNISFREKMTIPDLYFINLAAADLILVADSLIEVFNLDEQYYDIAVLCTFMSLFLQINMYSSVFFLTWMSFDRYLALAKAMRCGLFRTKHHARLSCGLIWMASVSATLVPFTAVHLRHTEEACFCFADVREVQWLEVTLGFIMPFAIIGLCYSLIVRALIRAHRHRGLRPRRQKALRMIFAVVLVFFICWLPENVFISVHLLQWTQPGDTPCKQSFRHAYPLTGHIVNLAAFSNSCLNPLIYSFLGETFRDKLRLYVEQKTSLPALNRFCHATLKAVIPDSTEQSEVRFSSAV
Protocol: FIGS. 6A and 6B show purified CD4^+ T cells that were pretreated with 2-50 μM 2ME2 and/or the GPER1 antagonist G15, and subsequently stimulated with anti-CD3/28 for 6 hours. Activation of CD4^+ T cells was assessed by CD25 and CD69 upregulation, measured by flow cytometry. US, unstimulated. Data is shown as mean±SD for triplicate determinations, and is representative of two separate experiments.
Purified C57/BL6 CD4^+ T cells were preincubated with the GPER1 antagonist G15 (100 nM, Tocris) and 2ME2 (0-50 μM), or the GPER1 agonist G1 (1-100 nM, Tocris) for 30 minutes, and activated with plate bound anti-CD3 plus soluble anti-CD28. 6 hours later, cells were harvested, stained with anti-CD4 and anti-CD25. CD25 expression was monitored on a HTS FACSCanto II (BD) and analyzed with FloJo (Treestar Inc).

[5] = tested on: activated B cells; assay: B cell activation markers CD25 and CD69; type: cell-based, C57/BL6 mice
Protocol: Cells were pre-incubated with various concentrations of 2ME2 (Entremed) or vehicle (DMSO) for 30 minutes at 37° C.
Purified CD4^+ T cells were stimulated with plate-bound anti-CD3 (clone 2C11, BD, 10 ng/ml) plus anti-CD28 (clone 37.51, BD, 100 ng/ml). Purified B220+ B cells were stimulated with anti-IgM (Jackson, 5 μg/ml), anti-CD40 (clone 3/20, BD, 5 μg/ml) or LPS (Sigma, 20 μg/ml) for the times indicated in FIG. 3. CD25 and CD69 expression was determined by flow cytometry (FACSCanto II, BD) and analyzed using FloJo software (Treestar Inc). Proliferation was assessed by 3H-thymidine incorporation. Viability and upregulation of cell surface markers on activated T cells were assessed by flow cytometry using Annexin V and propridium iodide. Human Peripheral blood mononuclear cells (PBMC) were isolated using Mono-Poly Resolving Medium (MP Biomedical) according to the manufacturer's protocols and activated with anti-CD3 (clone UCHT1) and anti-CD28 (clone CD28.2).

COc1cc2c(cc1O)CC[C@@H]1[C@@H]2CC[C@]2(C)[C@@H](O)CC[C@@H]12 [2ME2, 2-Methoxyestradiol]
proliferation of human PBL [1]: inhibited in a dose-dependent manner | AP-1 binding to DNA [2]: modest increase | binding of NF-κB to DNA [3]: normal | cell viability [4]: Neither 2ME2, G1 nor G15 affected cell viability | up-regulation of CD25 in activated B cells [5]: prevented | up-regulation of CD69 in activated B cells [5]: prevented
